The values below come from ChEMBL document CHEMBL1201862, “PubChem BioAssay data set” (2004).

Among the test systems are UO-31; LOX IMVI; NCI-H522; BT-549; T47D; NCI-H226; PC-3; M14; HL-60; RPMI-8226; OVCAR-8; ACHN; HCT-15; SF-295; 786-0; CAKI-1; UACC-257; RXF 393; KM12; MOLT-4.
Holding throughout (assay): DTP human tumour cell line panel, 48 h

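96-well plates; 48 h exposure; 5 concentrations. Endpoints by linear interpolation between flanking doses. Not reached: highest tested concentration assigned. GI50: concentration for 50% inhibition of growth.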 Activity calls are given as the source filed them. No stated cut-off is given here; in the data, active = GI50 up to about 1.1 µM and inactive = higher.

By GI50 is commonly meant the concentration giving 50% growth inhibition. On to `CC(C)C1CSC2N1C(=O)C2(OCc1ccccc1)C1CC1` (stereo not given), for which the GI50 in the assay with UO-31 was > 100 µM (inactive); in the assay on LOX IMVI it was > 100 µM (inactive); in the assay on NCI-H522, > 100 µM (inactive); with BT-549 it was > 100 µM (inactive); in the assay on T47D, 97.5 µM (inactive); with NCI-H226, > 100 µM (inactive). The GI50 in the assay with PC-3 is 69 µM (inactive); in the assay on M14 it was > 100 µM (inactive); in the assay on HL-60 it was 73.6 µM (inactive); in the assay with RPMI-8226, 89.1 µM (inactive); in the assay with OVCAR-8 it was > 100 µM (inactive); in the assay on ACHN it was > 100 µM (inactive). For the same compound, the GI50 with HCT-15 was greater than 100 µM; in the assay with SF-295 it was > 100 µM (inactive); with 786-0, > 100 µM (inactive); in the assay on CAKI-1 it was > 100 µM (inactive); in the assay on UACC-257, > 100 µM (inactive); in the assay with RXF 393, > 100 µM (inactive). Also, the GI50 was > 100 µM (inactive) in the assay on KM12 and 97.1 µM (inactive) in the assay with MOLT-4.

Consider `C=CCN(c1cc(OC)c2[nH]cc(C)c2c1[N+](=O)[O-])S(C)(=O)=O`, for which the GI50 with UO-31, in the assay on LOX IMVI, in the assay on NCI-H522, in the assay on BT-549, in the assay with T47D and with NCI-H226 was > 100 µM (inactive) throughout. The GI50 with PC-3, in the assay with M14, with HL-60, in the assay on RPMI-8226, in the assay on OVCAR-8 and in the assay with ACHN was > 100 µM (inactive) each time. Besides, the GI50 in the assay with HCT-15 was greater than 100 µM; in the assay with SF-295, > 100 µM (inactive); in the assay with 786-0, > 100 µM (inactive); in the assay with CAKI-1, 2.55 µM (inactive); in the assay with UACC-257, > 100 µM (inactive); in the assay on RXF 393 it was > 100 µM (inactive). Further, the GI50 in the assay with KM12 and with MOLT-4 was > 100 µM (inactive) in each case.

Regarding `C=CCCCCOC1C=CC(O)C(CO)O1` (stereo not given), the GI50 in the assay with UO-31, in the assay with LOX IMVI, with NCI-H522, with BT-549, in the assay with T47D and in the assay on NCI-H226 was > 100 µM (inactive) each time. For the same compound, the GI50 in the assay on PC-3, in the assay with M14, with HL-60, in the assay with RPMI-8226, in the assay with OVCAR-8 and in the assay on ACHN was > 100 µM (inactive) each time. Besides, the GI50 was greater than 100 µM with HCT-15; > 100 µM (inactive) in the assay on SF-295; > 100 µM (inactive) with 786-0; > 100 µM (inactive) in the assay with CAKI-1; > 100 µM (inactive) in the assay on UACC-257; > 100 µM (inactive) in the assay with RXF 393. Moreover, the GI50 in the assay on KM12 and in the assay on MOLT-4 was > 100 µM (inactive) throughout.

As to `CC(C)(C)OC(=O)NC1CC=CCC1NC(=O)OC(C)(C)C` (stereo not given), the GI50 in the assay with UO-31, in the assay with LOX IMVI, with NCI-H522, in the assay with BT-549, with T47D and with NCI-H226 was > 100 µM (inactive) throughout. In addition, the GI50 in the assay with PC-3, in the assay with M14, in the assay with HL-60, in the assay with RPMI-8226, in the assay on OVCAR-8 and with ACHN was > 100 µM (inactive) each time. Further, the GI50 in the assay on HCT-15 was greater than 100 µM; in the assay with SF-295 it was > 100 µM (inactive); with 786-0, > 100 µM (inactive); in the assay with CAKI-1 it was > 100 µM (inactive); in the assay with UACC-257, > 100 µM (inactive); in the assay on RXF 393, 95.5 µM (inactive). Also, the GI50 in the assay with KM12 and in the assay on MOLT-4 was > 100 µM (inactive) throughout.

In the case of `COc1ccccc1C1Nn2c(nc3ccccc3c2=O)N1c1ccc(C)cc1` (stereo not given), the GI50 in the assay with UO-31 is 6.73 µM (inactive); with LOX IMVI, 7.62 µM (inactive); with NCI-H522, 7.8 µM (inactive); in the assay on BT-549, 21.8 µM (inactive); in the assay on T47D it was 4.82 µM (inactive); with NCI-H226, 2.77 µM (inactive). For the same compound, the GI50 is 2.71 µM (inactive) in the assay on PC-3; 10.5 µM (inactive) in the assay with M14; 10.6 µM (inactive) in the assay with HL-60; 3.72 µM (inactive) with RPMI-8226; 5.11 µM (inactive) in the assay on OVCAR-8; 4 µM (inactive) in the assay with ACHN. Besides, the GI50 in the assay with HCT-15 is 3.49 µM; in the assay with SF-295 it was 4.94 µM (inactive); in the assay on 786-0, 2.67 µM (inactive); in the assay on CAKI-1, 7.83 µM (inactive); in the assay on UACC-257 it was 16.3 µM (inactive); in the assay on RXF 393 it was 10 µM (inactive). Also, the GI50 is 11.2 µM (inactive) in the assay with KM12 and 1.47 µM (inactive) in the assay on MOLT-4.

Turning to `O/N=C1\CCc2cc3c(cc21)CCC3`, the GI50 in the assay with UO-31 was > 100 µM (inactive); with LOX IMVI, > 100 µM (inactive); in the assay with NCI-H522, > 100 µM (inactive); with BT-549, > 100 µM (inactive); with T47D, 86.3 µM (inactive); with NCI-H226, > 100 µM (inactive). Further, the GI50 is > 100 µM (inactive) in the assay with PC-3; > 100 µM (inactive) in the assay on M14; 67.5 µM (inactive) in the assay with HL-60; > 100 µM (inactive) in the assay on RPMI-8226; > 100 µM (inactive) with OVCAR-8; > 100 µM (inactive) with ACHN. Further, the GI50 with HCT-15 is greater than 100 µM; in the assay with SF-295 it was > 100 µM (inactive); in the assay on 786-0 it was > 100 µM (inactive); in the assay on CAKI-1, > 100 µM (inactive); in the assay on UACC-257, > 100 µM (inactive); in the assay on RXF 393 it was > 100 µM (inactive). The GI50 in the assay with KM12 and in the assay with MOLT-4 was > 100 µM (inactive) in each case.

On to `C=C(C)CNCC(=C)C.Oc1c(Cl)c(Cl)c(Cl)c(Cl)c1Cl`, for which the GI50 in the assay on UO-31 is 15.7 µM (inactive); in the assay with LOX IMVI it was 22.3 µM (inactive); in the assay on NCI-H522, 22 µM (inactive); with BT-549 it was 25.4 µM (inactive); in the assay on T47D it was 18.2 µM (inactive); in the assay on NCI-H226, 13.9 µM (inactive). Besides, the GI50 was 22.8 µM (inactive) in the assay on PC-3; 26.7 µM (inactive) in the assay on M14; 3.15 µM (inactive) in the assay with HL-60; 20.8 µM (inactive) in the assay with RPMI-8226; 31.9 µM (inactive) in the assay on OVCAR-8; 21.6 µM (inactive) in the assay on ACHN. The GI50 was 20.9 µM in the assay with HCT-15; 16.5 µM (inactive) in the assay on SF-295; 19.4 µM (inactive) in the assay with 786-0; 21.4 µM (inactive) in the assay with CAKI-1; > 100 µM (inactive) in the assay on UACC-257; 20 µM (inactive) with RXF 393. Moreover, the GI50 with KM12 was 20.4 µM (inactive); with MOLT-4 it was 20.1 µM (inactive).

As for `Cc1cc(C)c2c(=O)n(CC(O)CN(Cc3ccccc3)CC(O)Cn3sc4nc(C)cc(C)c4c3=O)sc2n1` (stereo not given), the GI50 in the assay with UO-31 is 17 µM (inactive); in the assay with LOX IMVI, 19.2 µM (inactive); with NCI-H522, 10 µM (inactive); with BT-549 it was 23.7 µM (inactive); in the assay on T47D, 18.2 µM (inactive); in the assay on NCI-H226, 18.5 µM (inactive). The GI50 is 16.8 µM (inactive) in the assay on PC-3; 17.4 µM (inactive) with M14; 33.2 µM (inactive) in the assay with HL-60; 3.61 µM (inactive) with RPMI-8226; 18.9 µM (inactive) with OVCAR-8; 16.5 µM (inactive) in the assay on ACHN. Also, the GI50 with HCT-15 was 17.3 µM; in the assay on SF-295, 22.1 µM (inactive); in the assay with 786-0, 14.6 µM (inactive); in the assay on CAKI-1, 18.8 µM (inactive); in the assay with UACC-257 it was 17.2 µM (inactive); in the assay with RXF 393 it was 18.8 µM (inactive). In addition, the GI50 was 17.2 µM (inactive) with KM12 and 3.25 µM (inactive) in the assay on MOLT-4.

As to `CCOP(=O)(OCC)OC1CC(n2cc(C)c(=O)n(C)c2=O)OC1CO[Si](C)(C)C(C)(C)C` (stereo not given), the GI50 in the assay on UO-31 is 2.9 µM (inactive); in the assay with LOX IMVI, > 100 µM (inactive); in the assay on NCI-H522, 32.1 µM (inactive); in the assay with BT-549 it was 55.1 µM (inactive); with T47D, 17.8 µM (inactive); in the assay with NCI-H226, > 100 µM (inactive). Besides, the GI50 with PC-3 was 29.1 µM (inactive); in the assay on M14, > 100 µM (inactive); in the assay with HL-60, 18.1 µM (inactive); in the assay on RPMI-8226, 25.2 µM (inactive); in the assay on OVCAR-8, > 100 µM (inactive); with ACHN, > 100 µM (inactive). In addition, the GI50 in the assay with HCT-15 was greater than 100 µM; in the assay with SF-295 it was 67 µM (inactive); in the assay with 786-0, > 100 µM (inactive); in the assay on CAKI-1, > 100 µM (inactive); in the assay with UACC-257, > 100 µM (inactive); with RXF 393, 21.6 µM (inactive). In addition, the GI50 is 75.2 µM (inactive) in the assay on KM12 and 37 µM (inactive) in the assay with MOLT-4.

As to `Cc1cc(N2CCCC2)c([N+](=O)[O-])cc1[N+](=O)[O-]`, the GI50 with UO-31, in the assay on LOX IMVI, with NCI-H522, with BT-549, in the assay on T47D and in the assay on NCI-H226 was > 100 µM (inactive) throughout. The GI50 in the assay with PC-3, with M14, with HL-60, in the assay with RPMI-8226, with OVCAR-8 and with ACHN was > 100 µM (inactive) in each case. Further, the GI50 was greater than 100 µM in the assay on HCT-15; > 100 µM (inactive) with SF-295; > 100 µM (inactive) with 786-0; > 100 µM (inactive) in the assay with CAKI-1; > 100 µM (inactive) in the assay on UACC-257; 80.9 µM (inactive) in the assay on RXF 393. In addition, the GI50 with KM12 and in the assay with MOLT-4 was > 100 µM (inactive) in each case.
